Reference: the supplement of paper PMC11451515

What was measured:
Assay in all cases: AUC of viability dose-response curve (% viability x log10 dose units); higher = less sensitive
Details in all cases: 48 h
NOMO1 = system: NOMO1
Outline: (§1)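 Viability of medium-adapted leukemia cells was measured by CellTiter-Glo One luminescence after 48 h at 37°C with library compounds in DMSO. Doses were 11 threefold steps from 47 μM to 0.79 nM, in 1536-well plates at 500 or 1000 cells/well. Signals were normalised per plate to DMSO and cell-free wells and fitted with a four-parameter log-logistic model on log10 dose. Area under the curve was integrated by trapezoidal rule, with curves exceeding full viability scaled and failed quality-control curves removed.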

SEM cells = system: SEM cells
Outline: as §1

P12-Ichikawa = system: P12-Ichikawa
Outline: as §1

[1] = RPMI 5 mM glucose + 10% dialyzed FBS

SMILES	AUC of viability dose-response curve (NOMO1; HPLM + 10% dialyzed FBS)	AUC of viability dose-response curve (NOMO1; RPMI 5 mM glucose + 10% FBS)	AUC of viability dose-response curve (NOMO1; [1])	AUC of viability dose-response curve (SEM cells; HPLM + 10% dialyzed FBS)	AUC of viability dose-response curve (SEM cells; RPMI 5 mM glucose + 10% FBS)	AUC of viability dose-response curve (SEM cells; [1])	AUC of viability dose-response curve (P12-Ichikawa; HPLM + 10% dialyzed FBS)	AUC of viability dose-response curve (P12-Ichikawa; RPMI 5 mM glucose + 10% FBS)	AUC of viability dose-response curve (P12-Ichikawa; [1])
CC(C)C(=O)Nc1ncc(-c2cc(C(F)F)nn2-c2c(Cl)cccc2Cl)s1	468	472	460	458	465	463	465	460	463
CCCC1=N[N](C)C2=C1\N=C(/NC2=O)C3=CC(=CC=C3OCC)[S+]([O-])(=O)N4CCN(C)CC4	400	385	403	349	356	364	407	385	381
CCCCCCCCOc1ccccc1C(=O)Nc1ccc(C(=O)OCC[N+](C)(CC)CC)cc1	446	401	413	435	414	460	437	444	408
CCCC(CCC)C(=O)[O-]	448	469	453	461	442	468	468	472	476
CCNC(=O)Nc1ccc(-c2nc3c(c(N4CCOC[C@@H]4C)n2)CCN(C2COC2)C3)cc1	352	407	380	366	353	378	370	358	356
CCCCOc1ccc(CC(=O)NO)cc1	417	459	439	440	463	458	464	457	454
CN1CC/C(CC1)=C3\c4ccccc4CC(=O)c2sccc23	462	463	463	460	472	473	472	467	470
CCCc1nc2c(C)cc(-c3nc4ccccc4n3C)cc2n1Cc1ccc(-c2ccccc2C(=O)O)cc1	446	463	465	456	463	472	470	382	465
O=C(O)c1ccc(-c2c[nH]c3ncc(-c4ccccc4)cc23)cc1C1CCCC1	466	471	468	435	404	400	458	453	450
CC(Cc1ccc(O)c(O)c1)(NN)C(=O)O (stereo not given)	475	453	442	469	466	468	448	467	465
COc1cccc2c(NCc3ccccc3)nc(-n3c(N)nc4ccccc43)nc12	453	457	455	369	367	379	428	435	439
CCC[C@@H](C=O)NC(=O)[C@H](CC(C)C)NC(=O)[C@H](CC(C)C)NC(=O)OCc1ccccc1	348	334	359	356	296	337	366	359	367
C/C(=C\c1csc(C)n1)[C@@H]1C[C@@H]2O[C@]2(C)CCC[C@H](C)[C@H](O)[C@@H](C)C(=O)C(C)(C)[C@@H](O)CC(=O)O1	138	82	114	104	74.6	95.4	139	120	184
Cc1cc(SCc2sc(-c3ccc(C(F)(F)F)cc3)nc2C)ccc1OCC(=O)O	447	443	463	453	459	457	471	459	458
Cn1cc(-c2cnn3c(N)c(Br)c([C@@H]4CCCNC4)nc23)cn1	352	322	314	300	344	289	358	342	339
CC(=O)Oc1cc2c(s1)CCN(C(C(=O)C1CC1)c1ccccc1F)C2.Cl (stereo not given)	386	396	396	466	431	453	468	455	452
CC1(C)Cc2c(sc(NC(=S)NC(=O)c3ccccc3)c2C(=O)O)CO1	466	456	458	452	474	427	469	476	470
OC1=CC2=C(C(=O)\C=C(/O2)C3=CC=CC=C3)C(=C1O)O	441	431	441	407	379	402	391	413	418
COc1ccccc1OCCNCC(O)COc1cccc2[nH]c3ccccc3c12 (stereo not given)	476	465	474	467	463	467	461	468	468
Cn1c(=O)c2[nH]cnc2n(C)c1=O	464	454	457	474	454	477	473	463	468
